Like-named read-outs stand apart in the source and are kept apart here. Residues, ends and D or L forms follow the SMILES beside them. *: point of attachment. Cbz = O=C(OCc1ccccc1)*; CH2F = FC*
How the values were obtained:
[1] = tested on: hECEs, ECE16-1, HT3, CaSki, SiHa and Hela cells; settings: cited from earlier work
Bcl-2 = settings: cited from earlier work
caspase-9 = settings: hECEs and CaSki cells; cited from earlier work
P2X7 receptor = settings: cited from earlier work
[2] = biological target: T1, full-length human P2X7 receptor (HEK-293-hP2X7-R cells) (Homo sapiens, UniProt Q99572); test: Cytosolic calcium in HEK-293-hP2X7-R and wild-type HEK293 cells on filters; type: cell-based
T1 construct: For transfections, the full length human P2X7 receptor; expressed in transfected cells; host or cells: HEK-293, pcDNA-6 vector
T1 sequence (Q99572 1-595): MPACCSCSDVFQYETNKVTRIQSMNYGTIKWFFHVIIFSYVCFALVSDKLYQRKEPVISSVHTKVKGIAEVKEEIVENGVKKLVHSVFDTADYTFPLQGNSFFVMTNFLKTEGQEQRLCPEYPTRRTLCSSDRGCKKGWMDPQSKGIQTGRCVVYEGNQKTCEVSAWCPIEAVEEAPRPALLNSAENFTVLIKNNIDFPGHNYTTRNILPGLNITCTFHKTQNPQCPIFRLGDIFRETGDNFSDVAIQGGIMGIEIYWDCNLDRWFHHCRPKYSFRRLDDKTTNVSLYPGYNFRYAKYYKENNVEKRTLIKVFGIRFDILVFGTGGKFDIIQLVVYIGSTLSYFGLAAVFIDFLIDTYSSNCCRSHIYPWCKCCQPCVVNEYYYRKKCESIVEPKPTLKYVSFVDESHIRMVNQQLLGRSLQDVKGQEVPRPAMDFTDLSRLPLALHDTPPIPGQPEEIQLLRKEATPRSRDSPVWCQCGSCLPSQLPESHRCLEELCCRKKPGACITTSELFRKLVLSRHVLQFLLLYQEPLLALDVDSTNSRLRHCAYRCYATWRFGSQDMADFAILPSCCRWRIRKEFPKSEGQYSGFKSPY

[3] = tested on: β-arrestin-2-GFP in CaSki cells; test: Real-time confocal microscopy of β-arrestin-2-GFP, CaSki cells; type: cell-based, human; settings: CaSki transfected with β-arrestin-2-GFP; 250 μM ATP
Description: (§1) CaSki cells transfected with the β-arrestin-2-GFP, or HEK-293 cells co-transfected with the full-length human P2X7-receptor and the β-arrestin-2-GFP were plated on 35-mm glass-bottom culture dishes (MatTek Corporation, Ashland, MA). Dishes contained a centered, 1 cm well formed from a glass coverslip sealed hole in the plastic. Two hours before experiments the medium was replaced with serum-free medium supplemented with 10 mM HEPES. The distribution of the β-arrestin-2-GFP was visualized before and after treatment with the agonist by real-time confocal microscopy. Imaging of the β-arrestin-2-GFP fluorescence in the same cells was performed on a Zeiss laser-scanning confocal microscope (LSM-510) using a heated (37° C.) microscope stage. Barak et al., “A beta-arrestin/green fluorescent protein biosensor for detecting G protein-coupled receptor activation” J Biol Chem 272:27497-27500 (1997).
(§2) Images were collected sequentially before and after treatment with agonist for 0-30 min at 37° C. using single line excitation (488 nm).

[4] = tested on: β-arrestin-2-GFP in HEK-293-hP2X7-R cells; test: Real-time confocal microscopy of β-arrestin-2-GFP, HEK-293 cells; type: cell-based, human
Description: as §1, §2

[5] = biological target: P2X7 receptor (HEK-293-hP2X7-R cells) (Homo sapiens, UniProt Q99572)
CaSki cells [6] = test: DNA solubilization assay (apoptosis); type: cell-based, human; settings: for effect on zinterol (1 μM)-induced inhibition of BzATP-induced apoptosis: cotreatment 24 h: 10 μM propranolol, 100 nM ICI 118,551, 30 μM H-89 dihydrochloride; for BzATP-induced DNA solubilization after pretreatment: 100 μM BzATP 9 h, 24 h 2 nM epinephrine ± 0.2 nm EGF, zVAD-FMK 30 min before, 50 /ZM; for effect on BzATP-induced apoptosis (DNA solubilization): pretreatment: EGF 0.2 nM, zinterol/terbutaline 1 μM 24 h, forskolin 10 μM 14 h with IBMX, isoproterenol 10 μM, phenylephrine 100 μM
Description: Twenty-four hours before the end of the experiment, cells were labeled with [^3H]thymidine (specific activity, 93 Ci/mmol; 5 μCi/1×10^6 cells) for 16 h. The medium was removed, and cells were washed three times with fresh medium lacking [^3H]thymidine and were incubated in the same medium for an additional 6 h. At the end of incubation, the supernatant was stored, and cells were lysed in 0.5 ml lysis buffer (10 mM Tris-HCl, pH 7.5; plus 1 mM EDTA-0.2% Triton X-100) for 1 h at 4° C. The intact chromatin was separated from the fragmented DNA by 5 min centrifugation at 4° C. in Eppendorf microcentrifuge at 12,000×g. The supernatant (lysate) was stored, while the pellet was resuspended in 0.5 ml of 1% sodium dodecyl sulfate (SDS). The radioactivity contained in the supernatants, lysates; and pellets was counted in a scintillation counter, and DNA fragmentation was calculated as: [% Solubilized DNA]=([cpm supernatant+cpm lysates]/[cpm supernatant+cpm lysate+cpm pellet])×100.

[7] = biological target: T1, full-length human P2X7 receptor (HEK-293-hP2X7-R cells); test: Ethidium bromide influx in HEK-293-hP2X7-R and wild-type HEK293 cells on filters; type: cell-based
[8] = tested on: α-adrenoceptors (CaSki cells); test: Binding studies, α-adrenoceptor radioligands; set-up: species or system human; settings: not shown
Description: Binding studies of the adrenoceptors and the EGF receptor used a similar method. Two hundred fifty microliters of binding medium (serum-free DMEM, 0.1% BSA, 10 mM HEPES) containing […] of the radioligand were added to the apical container of the filter, and 500/μl of the same solution to the basolateral container; parallel tubes contained an additional 200-fold excess radioinert ligand. The cells were then incubated at 4° C. for 3 h; at the completion of incubations cells were washed three times with ice-cold HBSS containing 0.1% BSA. Cells were solubilized in 0.2 N NaOH, and the bound ligand was separated on glass fiber filters (Whatman, GF/C, Tonawanda, N.Y.) by vacuum filtration. The associated radioligand was counted either in a β-scintillation counter (for [^3H] associated ligands) or in a γ-counter (for 125I] associated ligands). […] (all at 1 μCi/ml; specific activity, about 90 Ci/mmo]; Amersham), and [^125I]EGF (5 μCi/ml; specific activity, about 100 Ci/mmol; Biomedical Technology, Stoughton, Mass.). […] Human recombinant EGF was from R&D Systems (Minneapolis, Minn.). Specific receptor binding was expressed per milligram DNA, and data were analyzed by Scatchard plot.

[9] = biological target: T2, β2-adrenoceptor (CaSki cells) (Homo sapiens, UniProt P07550); test: Binding studies, β-adrenoceptor radioligand
T2 construct: endogenous in cells; host or cells: CaSki cells on filters (intact cells, 4 °C)
T2 sequence (P07550 whole entry): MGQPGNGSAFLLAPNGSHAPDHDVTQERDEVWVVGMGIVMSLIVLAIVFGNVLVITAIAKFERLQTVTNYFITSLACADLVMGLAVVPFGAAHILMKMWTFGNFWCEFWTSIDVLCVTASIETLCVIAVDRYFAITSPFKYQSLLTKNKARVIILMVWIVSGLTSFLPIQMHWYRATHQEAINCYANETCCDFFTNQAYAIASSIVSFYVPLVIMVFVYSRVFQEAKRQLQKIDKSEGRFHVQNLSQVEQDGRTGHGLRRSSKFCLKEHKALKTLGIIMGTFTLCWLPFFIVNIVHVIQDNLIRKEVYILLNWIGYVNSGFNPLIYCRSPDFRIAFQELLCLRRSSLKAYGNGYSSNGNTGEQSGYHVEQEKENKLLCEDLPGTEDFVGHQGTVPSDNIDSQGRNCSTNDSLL

CaSki cells [10] = test: Number of CaSki cells in culture; type: cell-based, human; settings: serum-free; 0.2 nM EGF, 2 nM epinephrine, or both, 24 h
Description: Near-confluent cultures of CaSki cells on filters were shifted for 14 hours to serum-free medium supplemented with 1% BSA and were treated in the same medium with 0.2 nM EGF, 2 nM epinephrine, or both for an additional 24 h. At the completion of treatments, cells were harvested off the filters and counted.

[11] = HEK-293-hP2X7-R with β-arrestin-2-GFP, 10 μM angiotensin, 10 μM UTP

17β-estradiol [estrogen]
P2X7 receptor-induced apoptosis ([1]; SiHa and Hela cells): no effect
earliest effects after adding the hormone [1]: 1 to 3 h
baseline and P2X7 receptor-induced apoptosis ([1]; hECEs, ECE16-1, HT3, and CaSki cells): blocked baseline and P2X7 receptor-induced apoptosis
Bcl-2 regulation (Bcl-2; CaSki cells): upregulated Bcl-2
Bcl-2 regulation (Bcl-2; SiHa and Hela cells): did not find estrogen regulation of Bcl-2
P2X7 receptor-induced activation of caspase-9 (caspase-9): blocked P2X7 receptor-induced activation of caspase-9
BzATP-induced calcium influx (P2X7 receptor; cancer CaSki cells): only a mild effect
BzATP-induced calcium influx (P2X7 receptor; normal hECEs): did block BzATP-induced calcium influx

Nc1ncnc2c1ncn2[C@@H]1O[C@H](COP(=O)(O)OP(=O)(O)OP(=O)(O)O)[C@@H](O)[C@H]1O [ATP, adenosine triphosphate]
Cai transients [2]: did not induce Cai transients
sustained cytosolic calcium increase [2]: induced sustained Ci increase
time to re-distribution of GFP fluorescence towards cell periphery [3]: ≤ 3 min
time to redistribution of the GFP fluorescence towards cell periphery ([4]; HEK-293-hP2X7-R co-transfected with β-arrestin-2-GFP, 250 μM ATP): ≤ 5 min
duration of redistribution effect ([4]; HEK-293-hP2X7-R with β-arrestin-2-GFP, 250 μM ATP): at least 10 minutes
effect on the GFP fluorescence ([4]; HEK-293 cells transfected with only β-arrestin-2-GFP, 250 μM ATP): no significant effect
65 KDa and 18 KDa forms in the cytosol ([5]; HEK-293-hP2X7-R cells): biphasic change
18 KDa form in the membrane-enriched fraction ([5]; HEK-293-hP2X7-R, began 10 min after treatment): gradual increase

Cl.Cl.O=S(=O)(NCCNC/C=C/c1ccc(Br)cc1)c1cccc2cnccc12 [H-89 dihydrochloride]
effect on zinterol (1 μM)-induced inhibition of BzATP-induced apoptosis (CaSki cells [6]): blocked

Cc1ccc(OCC(O)C(C)NC(C)C)c2c1CCC2 (stereo not drawn) [ICI 118,551]
effect on zinterol (1 μM)-induced inhibition of BzATP-induced apoptosis (CaSki cells [6]): blocked

C[C@]12CC[C@@H]3c4ccc(O)cc4C[C@@H](CCCCCCCCC[S+]([O-])CCCC(F)(F)C(F)(F)F)[C@H]3[C@@H]1CC[C@@H]2O (stereo partly drawn) [ICI-182780]
inhibition of the estrogen antiapoptotic action [1]: lack of inhibition

CN([C@@H](Cc1ccc(OS(=O)(=O)c2cccc3cnccc23)cc1)C(=O)N1CCN(c2ccccc2)CC1)S(=O)(=O)c1cccc2cnccc12 [KN-62, 1-[N,O-bis(5-isoquinolinesulfonyl)-N-methyl-L-tyrosyl]-4-phenylpiperazine]
effect on ATP/BzATP-induced sustained calcium increase [2]: inhibited
effect on ATP/BzATP-induced influx of ethidium bromide [7]: inhibited

O=c1ccn([C@@H]2O[C@H](COP(=O)(O)OP(=O)(O)OP(=O)(O)O)[C@@H](O)[C@H]2O)c(=O)[nH]1 [UTP]
effect on cytosolic calcium levels ([2]; not shown): nor did the nucleotide UTP have any appreciable effect
effect on the GFP fluorescence [4, 11]: Neither angiotensin, nor UTP, had a significant effect

COc1cc2nc(N3CCN(C(=O)c4ccco4)CC3)nc(N)c2cc1OC [[^3H]prazosin]
specific binding [8]: no specific binding

CC(C)(C)NCC(O)COc1cccc2[nH]c(C#N)c([125I])c12 (stereo not drawn) [[^125I]cyanopindolol]
binding activity [9]: about 15 fmol/mg DNA
binding activity as receptors per cell [9]: ~10,000 receptors/cell

CNC[C@H](O)c1ccc(O)c(O)c1 [epinephrine]
number of cells in culture (CaSki cells [10]): increased the number of cells in culture
BzATP-induced DNA solubilization after pretreatment (CaSki cells [6]): 4.6%

CC(C)NCC(O)c1ccc(O)c(O)c1 (stereo not drawn) [isoproterenol]
effect on BzATP-induced apoptosis (DNA solubilization) (CaSki cells [6]): no effect

Nc1ncnc2c1ncn2[C@@H](C=O)O[C@@H](C=O)COP(=O)(O)OP(=O)(O)OP(=O)(O)O [oATP, oxidized ATP]
effect on ATP/BzATP-induced sustained calcium increase [2]: inhibited
effect on ATP/BzATP-induced influx of ethidium bromide [7]: inhibited

CNC[C@H](O)c1cccc(O)c1 [phenylephrine]
effect on BzATP-induced apoptosis (DNA solubilization) (CaSki cells [6]): no effect

CC(=O)[C@H]1CC[C@H]2[C@@H]3CCC4=CC(=O)CC[C@]4(C)[C@H]3CC[C@]12C [progesterone]
inhibition of the estrogen antiapoptotic action [1]: lack of inhibition

CC(C)NCC(O)COc1cccc2ccccc12 (stereo not drawn) [propranolol]
effect on zinterol (1 μM)-induced inhibition of BzATP-induced apoptosis (CaSki cells [6]): blocked

CC/C(=C(\c1ccccc1)c1ccc(OCCN(C)C)cc1)c1ccccc1 [tamoxifen]
inhibition of the estrogen antiapoptotic action [1]: lack of inhibition

CC(C)(C)NCC(O)c1cc(O)cc(O)c1 (stereo not drawn) [terbutaline]
effect on BzATP-induced apoptosis (DNA solubilization) (CaSki cells [6]): inhibited

COC(=O)C[C@H](NC(=O)[C@H](C)NC(=O)[C@@H](NC(=O)OCc1ccccc1)C(C)C)C(=O)CF [zVAD-FMK, Benzyloxy-vallne-alardne-aspartate-O-methylfluoromethylketone] (Cbz-Val-Ala-Asp(OMe)-CH2F)
BzATP-induced DNA solubilization after pretreatment (CaSki cells [6]): about 1.4%

CC(C)(Cc1ccccc1)NCC(O)c1ccc(O)c(NS(C)(=O)=O)c1 (stereo not drawn) [zinterol]
effect on TNFα-induced increase in DNA solubilization (CaSki cells [6]; pretreatment 24 h: 1 μM zinterol or 0.2 nM EGF): no effect
effect on BzATP-induced apoptosis (DNA solubilization) (CaSki cells [6]): inhibited

TNFα
DNA solubilization (CaSki cells [6]; 100 μM BzATP for 9 h or 10 μM TNFα for 14 h): significantly increased DNA solubilization

[^3H]tamsulosin
specific binding [8]: no specific binding

angiotensin
effect on the GFP fluorescence [4, 11]: Neither angiotensin, nor UTP, had a significant effect
